What all share (assay type): cell-based
Test [1] deals with MCF-7 (estrogen receptor positive breast cancer cells). As to the kind of experiment: Anti-proliferation activity against MCF-7 cells (MTS/PMS). The settings on record: for IC50: Homo sapiens, MCF7. The essentials: (§1)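 Viability after 72 h compound treatment (1% DMSO final, 37° C., 5% CO2) measured by MTS/PMS; plating density 2000 cells/well with overnight attachment.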
The subject of test [2] is cancer cell lines. As to the kind of experiment: Anti-proliferative activity, statements covering several cancer cell lines. Conditions: for fold reduced activity versus the compound with a hydrogen at the 5-position: both breast cancer cell lines. As for the experimental part:
Upon completion of synthesis of library of compounds in Examples 23 and 24, the compounds were evaluated for anti-proliferative activity against SkBr3 (Her2 overexpressing breast cancer cells), MCF-7 (estrogen receptor positive breast cancer cells), HCT-116 (colon cancer cells characterized by wild-type p53), PL45 (pancreatic cancer cells), LNCaP (androgen sensitive prostate cancer cells) and PC-3 (androgen independent prostate cancer cells) cell lines. […] The monosubstituted benzamide variants improved activity.
(§2) Cells were maintained in a 1:1 mixture of Advanced DMEM/F12 (Gibco) supplemented with non-essential amino acids, L-glutamine (2 mM), streptomycin (500 ng/mL), penicillin (100 units/mL), and 10% FBS. Cells were grown to confluence in a humidified atmosphere (37° C., 5% CO2), seeded (2000/well, 100 μl) in 96-well plates, and allowed to attach overnight. Compound or GDA at varying concentrations in DMSO (1% DMSO final concentration) was added, and cells were returned to the incubator for 72 hours. At 72 hours, the number of viable cells was determined using an MTS/PMS cell proliferation kit (Promega) per the manufacturer's instructions. Cells incubated in 1% DMSO were used at 100% proliferation, and values were adjusted accordingly. IC50 values were calculated from separate experiments performed in triplicate using GraphPad Prism.
as §2, with “μg/mL),” for “ng/mL),”, “μL)” for “μl)”

The test system of test [3] is SkBr3 (Her2 overexpressing breast cancer cells). As to the kind of experiment: Anti-proliferation activity against SkBr3 cells (MTS/PMS). The settings on record: Homo sapiens, SK-BR-3. The gist of the method: as §1
In test [4] the test system is LNCaP (androgen sensitive prostate cancer cells). As to the kind of experiment: Anti-proliferation activity against LNCaP cells. Conditions: Homo sapiens, LNCaP. The gist of the method:
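Cells seeded at 2000/well in Advanced DMEM/F12 with 10% FBS and attached overnight, then given compound in 1% DMSO final for 72 h at 37 °C, 5% CO2. Viable cells by MTS/PMS read-out, normalised to 1% DMSO as 100% proliferation. IC50 from separate triplicate experiments.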

The subject of test [5] is PC-3 (androgen independent prostate cancer cells). Description: Anti-proliferation activity against PC-3 cells. The settings on record: for IC50: Homo sapiens, PC-3, read-out: IC50 PC-3. The gist of the method: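 Antiproliferative activity was tested in PC-3 androgen-independent prostate cancer cells. Cells grown at 37° C. with 5% CO2 in Advanced DMEM/F12 (1:1) containing non-essential amino acids, 2 mM L-glutamine, streptomycin, penicillin and 10% FBS were plated at 2000/well in 96-well plates. Proliferation was normalized to 1% DMSO controls, and IC50 values from triplicate experiments were fitted in GraphPad Prism.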

Test [6] has as its system HCT-116 (colon cancer cells characterized by wild-type p53). As to the kind of experiment: Anti-proliferation activity against HCT-116 cells. Conditions: Homo sapiens.
The subject of test [7] is PL45 (pancreatic cancer cells). As to the kind of experiment: Anti-proliferation activity against PL45 cells.
The mark [8] stands for this setting: Table 6, 72 hours, MTS/PMS, mean ± standard deviation, read-out: IC50 LnCaP.
Setting [9] is: Table 6, 72 hours, MTS/PMS, mean ± standard deviation, read-out: IC50 MCF-7.
[10] abbreviates: Table 6, 72 hours, MTS/PMS, mean ± standard deviation, read-out: IC50 SKBr3.
Where [11] appears, read: Table 6, 72 hours, MTS/PMS, mean ± standard deviation.
Setting [12] is: Table 4, biaryl analogues, n = 3.
[13] abbreviates: Table 4, biaryl analogues, n = 3, read-out: IC50 MCF-7.
The mark [14] stands for this setting: Table 4, biaryl analogues, n = 3, read-out: IC50 SkBr3.
Where [15] appears, read: Table 5, heterocyclic analogues, n = 3.

Like-named read-outs stand apart in the source and are kept apart here.

Take `CC(C)=CCc1cc(C(=O)Nc2cc3ccc(O[C@@H]4C[C@H](O)CCO4)c(C)c3oc2=O)ccc1O` [18b, KU-430, 4-Hydroxy-N-(7-((2R,4R)-4-hydroxytetrahydro-2H-pyran-2-yloxy)-8-methyl-2-oxo-2H-chromen-3-yl)-3-(3-methylbut-2-enyl)benzamide]: the 50% inhibitory concentration (IC50) in test [1] (Table 18, modified furanose or pyranose noviose replacements, read-out: IC50, MCF7) is 1.56 ± 0.09 µM; in test [1] (text of Example 47, read-out: IC50 MCF-7), 1.56 ± 0.2 µM; in test [3] (Table 18, modified furanose or pyranose noviose replacements, read-out: IC50, SKBr3), 3.11 ± 0.19 µM; in test [3] (text of Example 47, read-out: IC50 SKBr3), 3.11 ± 0.03 µM. In test [2], the “times/fold more active than DHN2 (anti-proliferative activity)” value is roughly 3 fold. For the same molecule, in test [2], the “times/fold more active than novobiocin (anti-proliferative activity)” value was roughly 200 fold.
For `COc1cccc(-c2cc(C(=O)Nc3cc4c(OC)cc(O[C@@H]5OC(C)(C)[C@H](OC)[C@@H](O)[C@H]5O)c(C)c4oc3=O)ccc2OC)c1` [26d, N-(7-((2R,3R,4S,5R)-3,4-dihydroxy-5-methoxy-6,6-dimethyltetrahydro-2H-pyran-2-yloxy)-5-methoxy-8-methyl-2-oxo-2H-chromen-3-yl)-3′,6-dimethoxybiphenyl-3-carboxamide], the IC50 in test [4] (setting [8]) stood at 2 ± 0.8 µM; in test [1] (setting [9]), 82.8 µM; in test [3] (setting [10]), 55.7 ± 6.9 µM; in test [5] (setting [11]) it was 11.3 ± 2 µM. In addition, the “fold reduced activity versus the compound with a hydrogen at the 5-position” value in test [2] worked out at 4 fold.
In the case of `COc1cccc(-c2cc(C(=O)Nc3cc4ccc(O[C@@H]5OC(C)(C)[C@H](OC)[C@@H](O)[C@H]5O)c(OC)c4oc3=O)ccc2OC)c1` [26g, N-(7-((2S,3R,4S,5R)-3,4-dihydroxy-5-methoxy-6,6-dimethyltetrahydro-2H-pyran-2-yloxy)-8-methoxy-2-oxo-2H-chromen-3-yl)-3′,6-dimethoxybiphenyl-3-carboxamide], the IC50 is 1.1 ± 0.1 µM in test [4] (setting [8]), 9 ± 5.4 µM in test [1] (setting [9]), 13.9 ± 1.2 µM in test [3] (setting [10]) and 2.3 ± 2.9 µM in test [5] (setting [11]). For the same molecule, in test [2] (breast cancer cells), the “fold improved activity over its 8-methyl counterpart” value is recorded as 2 fold. The “fold increased activity over 8-ethyl 26h” value in test [2] (breast cancer cells) is given as 5 fold. In addition, in test [5] (PC-3 cells), the “fold increased activity versus the 8-methyl derivative” value was 10 fold.
Turning to `COc1cc(O[C@@H]2OC(C)(C)[C@H](OC)[C@@H](O)[C@H]2O)c(C)c2oc(=O)c(NC(=O)c3cc4ccccc4[nH]3)cc12` [26l, N-(7-((2R,3R,4S,5R)-3,4-dihydroxy-5-methoxy-6,6-dimethyltetrahydro-2H-pyran-2-yloxy)-5-methoxy-8-methyl-2-oxo-2H-chromen-3-yl)-1H-indole-2-carboxamide], the IC50 in test [4] (setting [8]) is 12.9 ± 4.4 µM; in test [1] (setting [9]) it was 6.1 ± 1.7 µM; in test [3] (setting [10]), 9 ± 0.8 µM; in test [5] (setting [11]) it was 11.8 ± 1.3 µM. Also, in test [2], the “fold reduced activity versus the compound with a hydrogen at the 5-position” value stood at 15 fold.
In the case of `CO[C@@H]1[C@@H](O)[C@@H](O)[C@H](Oc2ccc3cc(NC(=O)c4cc5ccccc5[nH]4)c(=O)oc3c2Cc2ccccc2)OC1(C)C` [26m, N-(8-benzyl-7-((2R,3R,4S,5R)-3,4-dihydroxy-5-methoxy-6,6-dimethyltetrahydro-2H-pyran-2-yloxy)-2-oxo-2H-chromen-3-yl)-1H-indole-2-carboxamide], the IC50 in test [4] (setting [8]) turned out to be 67.6 ± 6.3 µM; in test [1] (setting [9]), 13.2 ± 0.6 µM; in test [3] (setting [10]), 38 ± 3 µM; in test [5] (setting [11]), 73.3 ± 3.7 µM. The “fold less active than the 8-methyl derivative” value in test [1] (MCF-7 cells) is listed as 23 fold. Moreover, the “fold less active than the 8-methyl analogue” value in test [2] (PC-3 and LnCaP cells) was “about 4 fold”.
Consider `CO[C@@H]1[C@@H](O)[C@@H](O)[C@H](Oc2ccc3cc(NC(=O)/C=C/c4ccccc4)c(=O)oc3c2C)OC1(C)C` [compound 25, N-(7-((2R,3R,4S,5R)-3,4-Dihydroxy-5-methoxy-6,6-dimethyltetrahydro-2H-pyran-2-yloxy)-8-methyl-2-oxo-2H-chromen-3-yl)cinnamamide], for which the IC50 in test [6] (Table 3, n = 3) was 3.2 ± 0.5 µM; in test [4] (Table 3, n = 3, read-out: IC50 LNCaP), 4.5 ± 0.7 µM; in test [1] (Table 3, n = 3, read-out: IC50 MCF-7), 4 ± 0.3 µM; in test [3] (Table 3, n = 3, read-out: IC50 SkBr3) it was 2.6 ± 0.6 µM; in test [5] (Table 3, n = 3), 3.9 ± 0.05 µM; in test [7] (Table 3, n = 3) it was 3 ± 1 µM. In addition, the “fold increase in inhibitory activity versus the saturated derivative (23)” value in test [2] is “about 3 fold”.
As for `COc1ccccc1-c1cc(C(=O)Nc2cc3ccc(O[C@@H]4OC(C)(C)[C@H](OC)[C@@H](O)[C@H]4O)c(C)c3oc2=O)ccc1OC` [compound 32, N-(7-((2R,3R,4S,5R)-3,4-Dihydroxy-5-methoxy-6,6-dimethyltetrahydro-2H-pyran-2-yloxy)-8-methyl-2-oxo-2H-chromen-3-yl)-2′,6-dimethoxybiphenyl-3-carboxamide], the IC50 in test [6] (setting [12]) stood at 5.2 ± 2.1 µM; in test [4] (Table 4, biaryl analogues, n = 3, read-out: IC50 LNCaP) it was 6 ± 1 µM; in test [1] (setting [13]), 15.6 ± 6.3 µM; in test [3] (setting [14]) it was 7.1 ± 0.6 µM; in test [5] (setting [12]), 52.3 ± 34.7 µM; in test [7] (setting [12]) it was 3.8 ± 1.7 µM. Besides, the “fold improved inhibition compared to 28” value in test [2] is recorded as “about 2 fold”.
Consider `COc1ccc(C(=O)Nc2cc3ccc(O[C@@H]4OC(C)(C)[C@H](OC)[C@@H](O)[C@H]4O)c(C)c3oc2=O)cc1-c1ccccc1O` [compound 35, N-(7-((2R,3R,4S,5R)-3,4-Dihydroxy-5-methoxy-6,6-dimethyltetrahydro-2H-pyran-2-yloxy)-8-methyl-2-oxo-2H-chromen-3-yl)-2′-hydroxy-6-methoxybiphenyl-3-carboxamide], for which the IC50 in test [6] (setting [12]) came to 4.7 ± 1.4 µM; in test [1] (setting [13]), 1.5 ± 0.1 µM; in test [3] (setting [14]), 1.5 ± 0.1 µM; in test [5] (setting [12]) it was 16.6 ± 4.4 µM; in test [7] (setting [12]), 1.4 ± 0.2 µM. The “fold improved inhibition compared to 28” value in test [2] is recorded as “about 8 fold”.
Turning to `CO[C@@H]1[C@@H](O)[C@@H](O)[C@H](Oc2ccc3cc(NC(=O)c4c[nH]c5ccccc45)c(=O)oc3c2C)OC1(C)C` [compound 47, N-(7-((2R,3R,4S,5R)-3,4-Dihydroxy-5-methoxy-6,6-dimethyltetrahydro-2H-pyran-2-yloxy)-8-methyl-2-oxo-2H-chromen-3-yl)-1H-indole-3-carboxamide], the IC50 was 3.5 ± 0.5 µM in test [6] (setting [15]); 2.3 ± 0.1 µM in test [4] (Table 5, heterocyclic analogues, n = 3, read-out: IC50 LNCaP); 5.3 ± 0.3 µM in test [1] (Table 5, heterocyclic analogues, n = 3, read-out: IC50 MCF-7); 12.2 ± 1.5 µM in test [3] (Table 5, heterocyclic analogues, n = 3, read-out: IC50 SkBr3); 4.8 ± 2.4 µM in test [5] (setting [15]); 1.8 ± 0.3 µM in test [7] (setting [15]). For the same molecule, the “times less effective than compound 46” value in test [2] is reported as 3-10 times.

One may read the IC50 as the concentration needed to halve the response being measured.
